Tests used:
[1] = (§1) The drug is tested on Z-008 corresponding to metagenome with ENA study accession number: PRJEB37062 and ENA sample accession number: ERS12561808 for biotransformation under anaerobic condition. The drug concentrations were measured over 9 timepoints collected between 0 and 24 hours of incubation by liquid-chromatography-coupled mass spectrometry (LC–MS); settings: 2 µM
[2] = (§2) The drug is tested on WLS-027 corresponding to human gut metagenome with ENA study accession number: PRJEB37062 and ENA sample accession number: ERS12561744 for biotransformation under anaerobic condition. The drug concentrations were measured over 9 timepoints collected between 0 and 24 hours of incubation by liquid-chromatography-coupled mass spectrometry (LC–MS); settings: 2 µM
[3] = as §2, with “Z-002” for “WLS-027”, “rabbit” for “human”, “ERS12561802” for “ERS12561744”; settings: 2 µM
[4] = as §2, with “WLS-052” for “WLS-027”, “ERS12561747” for “ERS12561744”; settings: 2 µM
[5] = human gut metagenome, 24 h, 2 µM
[6] = human gut metagenome, 24 h, 2 µM; remark: listed apart in the source
[7] = as §2, with “Z-009” for “WLS-027”, “pig” for “human”, “ERS12561809” for “ERS12561744”; settings: 2 µM
[8] = as §2, with “WLS-098” for “WLS-027”, “ERS12561754” for “ERS12561744”; settings: 2 µM
[9] = human gut metagenome, 24 h, 2 µM; remark: listed apart in the source
[10] = as §2, with “Z-019” for “WLS-027”, “rat” for “human”, “ERS12561818” for “ERS12561744”; settings: 2 µM
[11] = human gut metagenome, 24 h, 2 µM; remark: listed apart in the source
[12] = as §2, with “Z-030” for “WLS-027”, “mouse” for “human”, “ERS12561829” for “ERS12561744”; settings: 2 µM
[13] = as §1, with “Z-026” for “Z-008”, “ERS12561825” for “ERS12561808”; settings: 2 µM
[14] = as §2, with “WLS-350” for “WLS-027”, “ERS12561789” for “ERS12561744”; settings: 2 µM
[15] = as §1, with “Z-023” for “Z-008”, “ERS12561822” for “ERS12561808”; settings: 2 µM
[16] = as §1, with “Z-021” for “Z-008”, “ERS12561820” for “ERS12561808”; settings: 2 µM
[17] = human gut metagenome, 24 h, 2 µM; remark: listed apart in the source
[18] = as §2, with “Z-028” for “WLS-027”, “mouse” for “human”, “ERS12561827” for “ERS12561744”; settings: 2 µM
[19] = human gut metagenome, 24 h, 2 µM; remark: listed apart in the source
[20] = human gut metagenome, 24 h, 2 µM; remark: listed apart in the source
Also: call rule not given here.

Row | SMILES | Bacterial Biotransformation [1] | Bacterial Biotransformation [2] | Bacterial Biotransformation [3] | Bacterial Biotransformation [4] | Bacterial Biotransformation [5] | Bacterial Biotransformation [6] | Bacterial Biotransformation [7] | Bacterial Biotransformation [8] | Bacterial Biotransformation [9] | Bacterial Biotransformation [10] | Bacterial Biotransformation [11] | Bacterial Biotransformation [12] | Bacterial Biotransformation [13] | Bacterial Biotransformation [14] | Bacterial Biotransformation [15] | Bacterial Biotransformation [16] | Bacterial Biotransformation [17] | Bacterial Biotransformation [18] | Bacterial Biotransformation [19] | Bacterial Biotransformation [20]
1 | CN(C)CC(c1ccc(O)cc1)C1(O)CCCCC1.O=C(O)CCC(=O)O (stereo not given) [DESVENLAFAXINE SUCCINATE] | Compound NOT metabolized | Compound NOT metabolized | Compound NOT metabolized | Compound NOT metabolized | Compound NOT metabolized | Compound NOT metabolized | Compound NOT metabolized | Compound NOT metabolized | Compound NOT metabolized | Compound NOT metabolized | Compound NOT metabolized | Compound NOT metabolized | Compound NOT metabolized | Compound NOT metabolized | Compound NOT metabolized | Compound NOT metabolized | Compound NOT metabolized | Compound NOT metabolized | Compound NOT metabolized | Compound NOT metabolized
2 | CN(C)CCc1c[nH]c2ccc(Cn3cncn3)cc12.O=C(O)c1ccccc1 [RIZATRIPTAN BENZOATE] | Compound NOT metabolized | Compound NOT metabolized | Compound NOT metabolized | Compound NOT metabolized | Compound NOT metabolized | Compound NOT metabolized | Compound NOT metabolized | Compound NOT metabolized | Compound NOT metabolized | Compound NOT metabolized | Compound NOT metabolized | Compound NOT metabolized | Compound NOT metabolized | Compound NOT metabolized | Compound NOT metabolized | Compound NOT metabolized | Compound NOT metabolized | Compound NOT metabolized | Compound NOT metabolized | Compound NOT metabolized
3 | CN1C(C(=O)Nc2ccccn2)=C(O)c2sccc2S1(=O)=O [TENOXICAM] | Compound NOT metabolized | Compound NOT metabolized | Compound NOT metabolized | Compound NOT metabolized | Compound NOT metabolized | Compound NOT metabolized | Compound NOT metabolized | Compound NOT metabolized | Compound NOT metabolized | Compound NOT metabolized | Compound NOT metabolized | Compound NOT metabolized | Compound NOT metabolized | Compound metabolized | Compound metabolized | Compound metabolized | Compound NOT metabolized | Compound NOT metabolized | Compound NOT metabolized | Compound NOT metabolized
4 | CCCc1nn(C)c2c(=O)[nH]c(-c3cc(S(=O)(=O)N4CCN(C)CC4)ccc3OCC)nc12.O=C(O)CC(O)(CC(=O)O)C(=O)O [SILDENAFIL CITRATE] | Compound NOT metabolized | Compound NOT metabolized | Compound NOT metabolized | Compound NOT metabolized | Compound metabolized | Compound NOT metabolized | Compound NOT metabolized | Compound NOT metabolized | Compound metabolized | Compound NOT metabolized | Compound NOT metabolized | Compound NOT metabolized | Compound NOT metabolized | Compound NOT metabolized | Compound metabolized | Compound NOT metabolized | Compound NOT metabolized | Compound NOT metabolized | Compound NOT metabolized | Compound NOT metabolized
5 | CN1CCN(C(=O)O[C@H]2c3nccnc3C(=O)N2c2ccc(Cl)cn2)CC1 [ESZOPICLONE] | Compound NOT metabolized | Compound NOT metabolized | Compound NOT metabolized | Compound NOT metabolized | Compound NOT metabolized | Compound NOT metabolized | Compound NOT metabolized | Compound NOT metabolized | Compound NOT metabolized | Compound NOT metabolized | Compound NOT metabolized | Compound NOT metabolized | Compound NOT metabolized | Compound NOT metabolized | Compound NOT metabolized | Compound NOT metabolized | Compound NOT metabolized | Compound NOT metabolized | Compound NOT metabolized | Compound NOT metabolized
6 | OC(CCN1CCCCC1)(c1ccccc1)C1CCCCC1 (stereo not given) [TRIHEXYPHENIDYL] | Compound NOT metabolized | Compound NOT metabolized | Compound metabolized | Compound NOT metabolized | Compound metabolized | Compound metabolized | Compound metabolized | Compound metabolized | Compound metabolized | Compound NOT metabolized | Compound NOT metabolized | Compound NOT metabolized | Compound NOT metabolized | Compound NOT metabolized | Compound metabolized | Compound metabolized | Compound NOT metabolized | Compound NOT metabolized | Compound NOT metabolized | Compound metabolized
7 | Cc1cn([C@H]2C[C@H](N=[N+]=[N-])[C@@H](CO)O2)c(=O)[nH]c1=O [ZIDOVUDINE] | Compound NOT metabolized | Compound NOT metabolized | Compound metabolized | Compound NOT metabolized | Compound NOT metabolized | Compound NOT metabolized | Compound NOT metabolized | Compound NOT metabolized | Compound NOT metabolized | Compound metabolized | Compound NOT metabolized | Compound metabolized | Compound metabolized | Compound NOT metabolized | Compound NOT metabolized | Compound NOT metabolized | Compound NOT metabolized | Compound metabolized | Compound NOT metabolized | Compound NOT metabolized
8 | CCN(CC)CCNC(C(=O)OCCC(C)C)c1ccccc1.Cl.Cl (stereo not given) | Compound NOT metabolized | Compound metabolized | Compound metabolized | Compound NOT metabolized | Compound metabolized | Compound metabolized | Compound metabolized | Compound metabolized | Compound metabolized | Compound NOT metabolized | Compound NOT metabolized | Compound NOT metabolized | Compound NOT metabolized | Compound metabolized | Compound NOT metabolized | Compound metabolized | Compound metabolized | Compound NOT metabolized | Compound metabolized | Compound metabolized
